Values of other authors as cited in article PMC12042267, “Expanding the Family of Monosubstituted 15-Membered Pyridine-Based Macrocyclic Ligands for Mn(II) Complexation in the Context of MRI” (Inorganic Chemistry, 2025).
Where two headings read alike, the source gives them in different places. Marks after values point to notes of the source that are not given here.

Legend:
[1] = Mn(II) complex, cited from earlier work; for dissociation half-life t1/2: calculated for pH 7.4
[2] = cited from earlier work; for r1 (relaxivity): 20 MHz
[3] = cited from earlier work
[4] = cited from earlier work; remark: listed apart in the source
[5] = Ca(II), cited from earlier work
[6] = cited from earlier work; remark: listed apart in the source
[7] = Zn(II), cited from earlier work
[8] = Cu(II), cited from earlier work
[9] = Mn(II), I = 0.15 M NaCl, 25 °C ref 26
[10] = Mn(II), I = 0.15 M NaCl, 25 °C ref 21
[11] = Mn(II), I = 0.15 M NaCl, 25 °C, log KMnHL in Table 5 ref 21
[12] = pH 7.4, cMn = clig = 10^–5 M ref 21
[13] = Mn(II), I = 0.15 M NaCl, 25 °C ref 22
[14] = Mn(II), I = 0.15 M NaCl, 25 °C ref 29

## O.O=C([O-])CN1CCOCCN(CC(=O)[O-])Cc2cccc(n2)C1.[Mn+2] [Mn(3,9-OPC2A)]
[1]; Cu(II) transmetalation ref 26
  k0: (8.6 ± 1.1) × 10^–6 s^–1
[2]; determined at pH 7.4 ref 26
  r1p298: 3.09 mM^–1 s^–1
[3]
  kex^298: 5.3 ± 0.4 10^7 s^–1
  ΔH^‡: 28.5 ± 1.7 kJ mol^–1

## O.O=C([O-])CN1CCN(Cc2ccc(-c3ccccc3)cc2)CCN(CC(=O)[O-])Cc2cccc(n2)C1.[Mn+2] [[Mn(PC2A-BP)(H2O)]]
[2]; determined at pH 7.4 ref 29
  r1p298: 4.96 mM^–1 s^–1
[2]; measured in the presence of HSA ref 55
  r1p298: 35.7 mM^–1 s^–1
[3]; Table 7, footnote h ref 29
  kex^298: 6.3 ± 0.2 10^7 s^–1
  ΔH^‡: 35.7 ± 0.1 kJ mol^–1

## O.O=C([O-])CN1CCOCCOCCNCc2cccc(n2)C1.[Mn+2] [MnL1]
[2]; 25 °C, 0.47 T ref 30
  r1 (relaxivity): 2.45 mM^–1 s^–1
[2]; 37 °C, 0.47 T ref 30
  r1 (relaxivity): 2.08 mM^–1 s^–1
[3]
  AO/ℏ: 38.6 10^6 rad s^–1
  ErH: 15.0 ± 0.5 kJ mol^–1
  kex^298: 0.45 ± 0.02 10^7 s^–1
  ΔH^‡: 28.1 ± 2.1 kJ mol^–1
  ΔS^‡: –23 ± 6 J mol^–1K^–1
  Δ^2: 160 ± 10 10^18 s^–2
  τrH^298: 35 ± 5 ps
  τv^298: 8 ± 1 ps

## NCCN1CCN(CC(=O)[O-])Cc2cccc(n2)CN(CC(=O)[O-])CC1.O.[Mn+2] [[Mn(PC2A-EA)(H2O)]]
[2]; 298 K and 0.47 T, pH 6.0 ref 22
  r1p298: 2.1 mM^–1 s^–1
[2]; 298 K and 0.47 T, pH 7.4 ref 22
  r1p298: 3.5 mM^–1 s^–1
[3]
  kex^298: 4.0 ± 0.2 10^7 s^–1

## c1cc2nc(c1)CNCCOCCOCCNC2 [15-pyN3O2]
[4]; 0.1 M NMe4Cl ref 28
  log K1^H: 8.82
  log K2^H: 7.80
[5]; 0.1 M NMe4Cl ref 28
  log KML: 2.04
  log KML(OH): -11.92
[6]; Mn(II), 0.1 M NMe4Cl ref 28
  log KML: 7.18
  log KML(OH): -11.69
[6]; pH 7.4, cMn = clig = 10^–5 M ref 28
  pMn: 5.28
[7]; 0.1 M NMe4Cl ref 28
  log KML: 8.58
  log KML(OH): -10.31
[8]; 0.1 M NMe4Cl ref 28
  log KML: 13.91
  log KML(OH): -8.34
  log KML(OH)2: -12.57

## O=C(O)CN1CCOCCN(CC(=O)O)Cc2cccc(n2)C1 [3,9-OPC2A]
[4]; I = 0.15 M NaCl, 25 °C ref 26
  log K1^H: 7.73
  log K2^H: 7.66
  log K3^H: 2.13
[5]; I = 0.15 M NaCl, 25 °C ref 26
  log KML: 8.27
[6]; [9]
  log KML: 13.03
  log KML(OH): -11.49
[6]; pH 7.4, cMn = clig = 10^–5 M ref 26
  pMn: 8.69
[7]; I = 0.15 M NaCl, 25 °C ref 26
  log KHML: 2.08
  log KML: 14.81
  log KML(OH): -10.95
[8]; I = 0.15 M NaCl, 25 °C ref 26
  log KHML: 1.92
  log KML: 18.41
  log KML(OH): -10.50
[1]; Cu(II) transmetalation ref 26
  k0: (8.6 ± 1.1) × 10^–6 s^–1
  k1: 2.81 ± 0.07 M^–1 s^–1
[1]; Cu(II) ref 26
  dissociation half-life t1/2: 21.9 h

## O=C(O)CN1CCNCc2cccc(n2)CN(CC(=O)O)CC1 [3,6-PC2A]
[4]; 1.0 M NaCl ref 21
  log K1^H: 10.31
  log K2^H: 8.59
  log K3^H: 3.92
  log K4^H: 1.56
[4]; I = 0.15 M NaCl, 25 °C ref 21
  log K1^H: 10.72
  log K2^H: 8.37
  log K3^H: 3.81
  log K4^H: 1.26
[5]; I = 0.15 M NaCl, 25 °C ref 21
  log KHML: 5.27
  log KML: 9.57
[6]; [10]
  log KML: 15.53
[6]; [11]
  log KHML: 3.06
[6]; [12]
  pMn: 8.09
[7]; I = 0.15 M NaCl, 25 °C ref 21
  log KHML: 2.36
  log KML: 20.37
[8]; I = 0.15 M NaCl, 25 °C ref 21
  log KHML: 2.37
  log KML: 24.09
[1]; Cu(II) transmetalation ref 21
  k1: 70 ± 1 M^–1 s^–1
  k2: (1.5 ± 0.4) × 10^5 M^–2 s^–1
  k3: (2.6 ± 0.7) × 10^–2 M^–1 s^–1
[1]; Cu(II) ref 21
  dissociation half-life t1/2: 63.2 h

## O.O=C([O-])CN1CCNCc2cccc(n2)CNCC1.[Mn+2] [[Mn(PC1A)(H2O)]^+]
[2]; determined at pH 7.4 ref 20
  r1p298: 2.39 mM^–1 s^–1
[3]
  kex^298: 303 ± 19 10^7 s^–1
  ΔH^‡: 13.0 ± 1.6 kJ mol^–1

## NCCN1CCN(CC(=O)O)Cc2cccc(n2)CN(CC(=O)O)CC1 [PC2A-EA]
[4]; I = 0.15 M NaCl, 25 °C ref 22
  log K1^H: 11.34
  log K2^H: 8.93
  log K3^H: 6.91
  log K4^H: 1.97
[6]; [13]
  log KH2ML: 2.50
  log KML: 19.01
[6]; Mn(II), I = 0.15 M NaCl, 25 °C, log KMnHL in Table 5 ref 22
  log KHML: 6.88
[6]; pH 7.4, cMn = clig = 10^–5 M ref 22
  pMn: 9.27
[1]; Cu(II) transmetalation ref 22
  k1: 0.6 M^–1 s^–1
[1]; Cu(II) ref 22
  dissociation half-life t1/2: 8000 h

## O.O.O.O.O.O.[Mn+2] [[Mn(H2O)6]^2+]
[2]; 1.41 T, 60 MHz, 25 °C ref 46
  r1 characteristic of free hexaaqua Mn(II): 6.7 mM^–1 s^–1
[2]; 25 °C, 0.47 T ref 54
  r1 (relaxivity): 8.36/– mM^–1 s^–1
[3]
  AO/ℏ: 33.3 10^6 rad s^–1
  kex^298: 2.1 10^7 s^–1
  ΔH^‡: 32.9 kJ mol^–1
  ΔS^‡: +5.7 J mol^–1K^–1
  Δ^2: 5.6 10^18 s^–2
  τrH^298: 30 ps
  τv^298: 3.3 ps

## c1cc2nc(c1)CNCCOc1ccccc1OCCNC2 [15-pyN3O2Ph]
[4]; I = 0.15 M NaCl, 25 °C ref 29
  log K1^H: 8.53
  log K2^H: 7.63
[5]; I = 0.15 M NaCl, 25 °C ref 29
  log KML: 1.85
[6]; [14]
  log KML: 5.62
  log KML(OH): -10.50
[6]; pH 7.4, cMn = clig = 10^–5 M ref 30
  pMn: 5.04^a
[7]; I = 0.15 M NaCl, 25 °C ref 29
  log KML: 7.70
  log KML(OH): -9.62
[8]; I = 0.15 M NaCl, 25 °C ref 29
  log KML: 13.97
  log KML(OH): -8.95

## O=P(O)(O)CN1CCNCc2cccc(n2)CNCC1 [PC1P]
[4]; 0.1 M NMe4Cl ref 20
  log K1^H: 11.84
  log K2^H: 9.64
  log K3^H: 6.23
  log K4^H: 0.99
[5]; 0.1 M NMe4Cl ref 20
  log KML: 6.85
[6]; Mn(II), 0.1 M NMe4Cl ref 20
  log KML: 14.06
  log KML(OH): -11.97
[6]; Mn(II), 0.1 M NMe4Cl, log KMnHL in Table 5 ref 20
  log KHML: 5.35
[6]; pH 7.4, cMn = clig = 10^–5 M ref 20
  pMn: 8.30
[7]; 0.1 M NMe4Cl ref 20
  log KHML: 5.19
  log KML: 19.66
  log KML(OH): 12.33
[8]; 0.1 M NMe4Cl ref 20
  log KHML: 4.89
  log KML: 22.63

## O.O=P([O-])([O-])CN1CCNCc2cccc(n2)CNCC1.[Mn+2] [[Mn(PC1P)(H2O)]]
[2]; determined at pH 7.4 ref 20
  r1p298: 2.84 mM^–1 s^–1
[3]
  kex^298: 177 ± 9 10^7 s^–1
  ΔH^‡: 14.0 ± 1.2 kJ mol^–1

## O.O.[Mn+2].c1cc2nc(c1)CNCCNCCNCCNC2 [Mn(15-pyN5)]
[2]; 25 °C, 0.47 T ref 28
  r1 (relaxivity): 3.56 mM^–1 s^–1
[3]
  kex^298: 6.9 ± 0.7 10^7 s^–1
  ΔH^‡: 37.7 ± 4 kJ mol^–1

## O=C(O)CN1CCNCCN(CC(=O)O)Cc2cccc(n2)C1 [3,9-PC2A]
[4]; 0.1 M KCl ref 42
  log K1^H: 12.50
  log K2^H: 5.75
  log K3^H: 3.28
  log K4^H: 2.38
[4]; I = 0.15 M NaCl, 25 °C ref 21
  log K1^H: 12.25
  log K2^H: 5.97
  log K3^H: 3.47
  log K4^H: 1.99
[5]; I = 0.15 M NaCl, 25 °C ref 21
  log KHML: 5.08
  log KML: 9.92
[6]; [10]
  log KML: 17.09
[6]; [11]
  log KHML: 2.14
[6]; [12]
  pMn: 8.64
[7]; I = 0.15 M NaCl, 25 °C ref 21
  log KHML: 2.74
  log KML: 19.49
[8]; I = 0.15 M NaCl, 25 °C ref 21
  log KHML: 2.12
  log KML: 23.58
[1]; Cu(II) transmetalation ref 21
  k1: 221 ± 5 M^–1 s^–1
  k3: (3.6 ± 0.7) × 10^–2 M^–1 s^–1
[1]; Cu(II) ref 21
  dissociation half-life t1/2: 21.0 h

## O.O.[Mn+2].c1cc2nc(c1)CNCCOc1ccccc1OCCNC2 [Mn(15-pyN3O2Ph)]
[2]; 25 °C, 0.47 T ref 29
  r1 (relaxivity): 5.16/– mM^–1 s^–1
[3]
  AO/ℏ: 43 10^6 rad s^–1
  kex^298: 0.64 10^7 s^–1
  ΔH^‡: 34.0 kJ mol^–1
  ΔS^‡: –1.0 J mol^–1K^–1
